Measurements: patent US20160039802A1, “3-PYRIMIDIN-4-YL-OXAZOLIDIN-2-ONES AS INHIBITORS OF MUTANT IDH” (NOVARTIS AG, priority 2013, published 2016)

Each compound was assayed against T1, Mutant IDH1 R132H (Homo sapiens, UniProt O75874, R132H) (assay: Mutant IDH1 biochemical assay: LC-MS detection of 2-HG). Details: mIDH R132H […], 5 uM NADPH, 100 uM alpha-KG, 45 minutes incubation; range where run multiple times.
T1 construct: His6 with PreScission site (N, cleaved yes); made in house; host or cells: E. coli Rosetta 2(DE3)
T1 sequence (O75874 whole entry R132H): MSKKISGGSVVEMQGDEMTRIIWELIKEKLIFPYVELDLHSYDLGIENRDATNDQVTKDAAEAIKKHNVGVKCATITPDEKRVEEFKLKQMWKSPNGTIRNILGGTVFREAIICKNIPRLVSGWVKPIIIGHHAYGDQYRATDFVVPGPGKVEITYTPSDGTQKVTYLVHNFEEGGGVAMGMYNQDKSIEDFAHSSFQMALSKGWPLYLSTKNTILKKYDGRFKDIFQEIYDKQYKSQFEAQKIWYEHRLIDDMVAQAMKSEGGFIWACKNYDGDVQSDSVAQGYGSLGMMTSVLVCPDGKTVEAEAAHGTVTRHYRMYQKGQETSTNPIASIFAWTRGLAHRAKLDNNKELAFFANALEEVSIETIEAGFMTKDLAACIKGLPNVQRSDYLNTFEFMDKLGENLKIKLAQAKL
Source text: Mutant IDH1 biochemical Sssay: LC-MS Detection of 2-HG.

IC50 [nM] | Compound
703 | C[C@H](Nc1nccc(N2C(=O)OCC2(C)C2CC2)n1)c1ccc(CN2CCN(C)CC2)cc1 (single isomer, unassigned) [Example 47]
2660 | C[C@H](Nc1nccc(N2C(=O)OCC2(C)C2CC2)n1)c1ccc(CN2CCN(C)CC2)cc1 (single isomer, unassigned) [Example 48]
2520 | CC(Nc1nccc(N2C(=O)OC[C@]2(C)C2CC2)n1)c1nc(-c2ccc(Cl)cc2)no1 (single isomer, unassigned) [Example 49]
3160 to 3260 | CC(Nc1nccc(N2C(=O)OC[C@@]2(C)C2CC2)n1)c1nc(-c2ccc(Cl)cc2)no1 (single isomer, unassigned) [Example 51]
32.6 to 54 | CC(Nc1nccc(N2C(=O)OC[C@@]2(C)C2CC2)n1)c1nc(-c2ccc(Cl)cc2)no1 (single isomer, unassigned) [Example 52]
> 5000 | Cc1cc(-c2cnc(C(C)Nc3nccc(N4C(=O)OC[C@]4(C)C4CC4)n3)nc2)ccc1F (single isomer, unassigned) [Example 54]
77.9 | C[C@H](Nc1nccc(N2C(=O)OCC2(C)C2CC2)n1)c1ccc(CN2CCN(C)C(C)(C)C2)cc1 (single isomer, unassigned) [Example 55]
527 | C[C@H](Nc1nccc(N2C(=O)OCC2(C)C2CC2)n1)c1ccc(CN2CCN(C)C(C)(C)C2)cc1 (single isomer, unassigned) [Example 56]
267 | C[C@H](Nc1nccc(N2C(=O)OC[C@]2(C)C2CC2)n1)c1ccc(CN2CCC(C)(O)CC2)c(F)c1 [Example 31, (S)-4-cyclopropyl-3-(2-(((S)-1-(3-fluoro-4-((4-hydroxy-4-methylpiperidin-1-yl)methyl)phenyl)ethyl)amino)pyrimidin-4-yl)-4-methyloxazolidin-2-one]
13.3 | C[C@H](Nc1nccc(N2C(=O)OC[C@]2(C)C2CC2)n1)c1ccc(CN2CCC(O)(C(F)(F)F)CC2)c(F)c1 [Example 32, (S)-4-cyclopropyl-3-(2-(((S)-1-(3-fluoro-4-((4-hydroxy-4-(trifluoromethyl)piperidin-1-yl)methyl)phenyl)ethyl)amino)pyrimidin-4-yl)-4-methyloxazolidin-2-one]

These compounds were tested against T2, IDH1 (R132H) mutant (Homo sapiens, UniProt O75874, R132H) (assay: Fluorescence biochemical assay (NADPH oxidation)). Details: mIDH R132H 10 nM, 10 μM NADPH, 100 μM α-KG; range where run multiple times.
T2 construct: His6 with PreScission site (N, cleaved yes); made in house; host or cells: E. coli Rosetta 2(DE3)
T2 sequence (O75874 whole entry R132H): as above
Experimental: The IDH1 (R132H) mutant catalyzes the reduced form of NADP+ (NADPH) and α-ketoglutarate (α-KG) to form nicotinamide adenine dinucleotide phosphate (NADP+) and R(−)-2-hydroxyglutarate (2HG). […] Reactions were monitored using the Perkin-Elmer Envision, Model 2101. […] The final reaction mixture contained 2.5% DMSO and test compounds with concentrations ranging 0.0000008-25 μM. The IDH1 (R132H) enzyme was used at a final concentration of 10 nM. Curve fitting for dose response […] determinations was done in the Helios module of the software package DAVID. The 4-parameter logistic model was used: y=min+((max−min)/1+(x/IC50)^shape)

Compound | IC50 [nM]
C[C@H](Nc1nc(F)cc(N2C(=O)OC[C@@H]2C2CC2)n1)c1ccccc1 [Example 1, (S)-4-cyclopropyl-3-(6-fluoro-2-((S)-1-phenylethylamino)pyrimidin-4-yl)oxazolidin-2-one] | 365
C[C@H](Nc1nc(Cl)cc(N2C(=O)OC[C@@H]2C2CC2)n1)c1ccccc1 [Example 2, (S)-3-(6-chloro-2-((S)-1-phenylethylamino)pyrimidin-4-yl)-4-cyclopropyloxazolidin-2-one] | 316
C[C@H](Nc1nc(Cl)cc(N2C(=O)OC[C@@H]2C2CC2)n1)c1nnc(-c2ccc(Cl)cc2)s1 [Example 4, (S)-3-(6-chloro-2-(((S)-1-(5-(4-chlorophenyl)-1,3,4-thiadiazol-2-yl)ethyl)amino)pyrimidin-4-yl)-4-cyclopropyloxazolidin-2-one] | 24.8
C[C@H](Nc1nc(Cl)cc(N2C(=O)OC[C@@H]2C2CC2)n1)c1cnn(-c2ccc(Cl)cc2)c1 [Example 5, (S)-3-(6-chloro-2-(((S)-1-(1-(4-chlorophenyl)-1H-pyrazol-4-yl)ethyl)amino)pyrimidin-4-yl)-4-cyclopropyloxazolidin-2-one] | 33.2
C[C@H](Nc1nc(Cl)cc(N2C(=O)OC[C@@H]2C2CC2)n1)c1cnc(N2CCOCC2)s1 [Example 6, (S)-3-(6-chloro-2-(((S)-1-(2-morpholinothiazol-5-yl)ethyl)amino)pyrimidin-4-yl)-4-cyclopropyloxazolidin-2-one] | 934
Cc1cc(N2C(=O)OC[C@@H]2C2CC2)nc(N[C@H](C)c2cn(-c3ccc(Cl)cc3)nn2)n1 [Example 12, (S)-3-(2-(((R)-1-(1-(4-chlorophenyl)-1H-1,2,3-triazol-4-yl)ethyl)amino)-6-methylpyrimidin-4-yl)-4-cyclopropyloxazolidin-2-one] | 323
Cc1ccc(-c2ncc([C@H](C)Nc3nc(C)cc(N4C(=O)OC[C@@H]4C4CC4)n3)s2)cn1 [Example 13, (S)-4-cyclopropyl-3-(6-methyl-2-(((S)-1-(2-(6-methylpyridin-3-yl)thiazol-5-yl)ethyl)amino)pyrimidin-4-yl)oxazolidin-2-one] | 191
C[C@H](Nc1nccc(N2C(=O)OC[C@@H]2C2CC2)n1)c1cnc(-c2ccc(C(F)(F)F)nc2)s1 [Example 14, (S)-4-cyclopropyl-3-(2-(((S)-1-(2-(6-(trifluoromethyl)pyridin-3-yl)thiazol-5-yl)ethyl)amino)pyrimidin-4-yl)oxazolidin-2-one] | 49.1
C[C@H](Nc1nccc(N2C(=O)OC[C@@H]2C2CC2)n1)c1cnc(-c2ccnc(C(F)(F)F)c2)s1 [Example 15, (S)-4-cyclopropyl-3-(2-(((S)-1-(2-(2-(trifluoromethyl)pyridin-4-yl)thiazol-5-yl)ethyl)amino)pyrimidin-4-yl)oxazolidin-2-one] | 108
C[C@H](Nc1nccc(N2C(=O)OC[C@@H]2C2CC2)n1)c1cnc(-c2ccc(C(F)F)cc2)s1 [Example 16, (S)-4-cyclopropyl-3-(2-(((S)-1-(2-(4-(difluoromethyl)phenyl)thiazol-5-yl)ethyl)amino)pyrimidin-4-yl)oxazolidin-2-one] | 29.2
C[C@H](Nc1nccc(N2C(=O)OC[C@@H]2C2CC2)n1)c1ccn(-c2ccc(C(F)(F)F)nc2)n1 [Example 17, (S)-4-cyclopropyl-3-(2-(((S)-1-(1-(6-(trifluoromethyl)pyridin-3-yl)-1H-pyrazol-3-yl)ethyl)amino)pyrimidin-4-yl)oxazolidin-2-one] | 169
C[C@H](Nc1ncc(F)c(N2C(=O)OC[C@@H]2C2CC2)n1)c1cnc(OCC(F)(F)F)c(Cl)c1 [Example 21, (S)-3-(2-((S)-1-(5-chloro-6-(2,2,2-trifluoroethoxy)pyridin-3-yl)ethylamino)-5-fluoropyrimidin-4-yl)-4-cyclopropyloxazolidin-2-one] | 1200
C[C@H](Nc1ncc(F)c(N2C(=O)OC[C@@H]2C2CC2)n1)c1cnc(C(C)(F)F)c(Cl)c1 [Example 22, (S)-3-(2-((S)-1-(5-chloro-6-(1,1-difluoroethyl)pyridin-3-yl)ethylamino)-5-fluoropyrimidin-4-yl)-4-cyclopropyloxazolidin-2-one] | 1140
C[C@H](Nc1nccc(N2C(=O)OC[C@@H]2C2CC2)n1)c1ccccc1 [Example 23, (S)-4-cyclopropyl-3-(2-((S)-1-phenylethylamino)pyrimidin-4-yl)oxazolidin-2-one] | 1370
C[C@H](Nc1ncc(F)c(N2C(=O)OC[C@@H]2C2CC2)n1)c1ccccc1 [Example 24, (S)-4-cyclopropyl-3-(5-fluoro-2-((S)-1-phenylethylamino)pyrimidin-4-yl)oxazolidin-2-one] | 1190
C[C@H](Nc1nccc(N2C(=O)OC[C@@H]2C2CC2)n1)c1cnc(OCC(F)(F)F)c(Cl)c1 [Example 25, (S)-3-(2-((S)-1-(5-chloro-6-(2,2,2-trifluoroethoxy)pyridin-3-yl)ethylamino)pyrimidin-4-yl)-4-cyclopropyloxazolidin-2-one] | 372
C[C@H](Nc1nc(Cl)cc(N2C(=O)OC[C@@H]2C2CC2)n1)c1cn(-c2ccc(Cl)cc2)cn1 [Example 26, (S)-3-(6-chloro-2-(((S)-1-(1-(4-chlorophenyl)-1H-imidazol-4-yl)ethyl)amino)pyrimidin-4-yl)-4-cyclopropyloxazolidin-2-one] | 349
C[C@H](Nc1nccc(N2C(=O)OC[C@]2(C)C2CC2)n1)c1ccc(CN2CCC(N3CCOCC3)CC2)c(F)c1 [Example 67, (S)-4-cyclopropyl-3-(2-(((S)-1-(3-fluoro-4-((4-morpholinopiperidin-1-yl)methyl)phenyl)ethyl)amino)pyrimidin-4-yl)-4-methyloxazolidin-2-one] | 33
C[C@H](Nc1nccc(N2C(=O)OC[C@@H]2C2CC2)n1)c1ccc(CN2CCC(N(C)C)C(F)(F)C2)c(F)c1 (stereo partly drawn) [Example 69, (4S)-4-cyclopropyl-3-(2-(((1S)-1-(4-((4-(dimethylamino)-3,3-difluoropiperidin-1-yl)methyl)-3-fluorophenyl)ethyl)amino)pyrimidin-4-yl)oxazolidin-2-one] | 25

Further lines, results first:

IC50 [nM] | Compound
62.7 | C[C@H](Nc1nccc(N2C(=O)OC[C@@H]2C2CC2)n1)c1nc(-c2ccc(Cl)cc2)no1 [Example 28, (S)-3-(2-((S)-1-(3-(4-chlorophenyl)-1,2,4-oxadiazol-5-yl)ethylamino)pyrimidin-4-yl)-4-cyclopropyloxazolidin-2-one]
124 | C[C@H](Nc1ncc(F)c(N2C(=O)OC[C@@H]2C2CC2)n1)c1nc(-c2ccc(Cl)cc2)no1 [Example 29, (S)-3-(2-((S)-1-(3-(4-chlorophenyl)-1,2,4-oxadiazol-5-yl)ethylamino)-5-fluoropyrimidin-4-yl)-4-cyclopropyloxazolidin-2-one]
96 | C[C@H](Nc1nccc(N2C(=O)OC[C@]2(C)C2CC2)n1)c1ccc(CN2CCC(N3CCOCC3)CC2)cc1 [Example 68, (S)-4-cyclopropyl-4-methyl-3-(2-(((S)-1-(4-((4-morpholinopiperidin-1-yl)methyl)phenyl)ethyl)amino)pyrimidin-4-yl)oxazolidin-2-one]
